We go through five compounds from publication PMC7891601 (Clinical Pharmacology and Therapeutics, 2020).

Where two headings read alike, the source gives them in different places.

One series concerns the target T1, OAT1 (Homo sapiens, UniProt Q4U2R8).
T1 sequence (Q4U2R8 1-563): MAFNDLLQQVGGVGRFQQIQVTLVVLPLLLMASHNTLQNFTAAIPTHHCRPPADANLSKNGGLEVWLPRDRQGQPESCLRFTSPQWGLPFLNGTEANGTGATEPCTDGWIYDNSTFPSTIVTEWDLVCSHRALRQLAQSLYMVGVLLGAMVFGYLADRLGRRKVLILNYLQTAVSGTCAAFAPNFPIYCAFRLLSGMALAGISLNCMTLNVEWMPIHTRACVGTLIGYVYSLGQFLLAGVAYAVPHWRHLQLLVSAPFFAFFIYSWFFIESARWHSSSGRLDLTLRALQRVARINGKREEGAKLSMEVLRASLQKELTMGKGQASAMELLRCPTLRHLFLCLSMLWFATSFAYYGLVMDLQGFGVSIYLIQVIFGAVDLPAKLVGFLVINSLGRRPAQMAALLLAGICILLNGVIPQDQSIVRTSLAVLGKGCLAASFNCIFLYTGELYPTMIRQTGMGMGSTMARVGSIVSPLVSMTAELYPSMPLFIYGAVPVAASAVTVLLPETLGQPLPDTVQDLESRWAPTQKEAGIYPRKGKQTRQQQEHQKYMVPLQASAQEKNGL
The series is described as follows: Inhibition of PAH uptake in OAT1-expressing HEK293 cells. In kind it is cell-based.

Series [1] has as its system MATE1. The settings on record: read-out: Ki for MATE1‐mediated creatinine uptake; cited from earlier work.
In the next series the test system is OAT2. The conditions noted are these: read-out: half‐maximal inhibitory concentration, OAT2; cited from earlier work.
Series [2] addresses MATE2‐K (Homo sapiens, UniProt Q86VL8). In kind it is cell-based. The settings on record: In vitro Ki of pyrimethamine, HEK293.
Series [3] concerns MATE2‐K. The conditions noted are these: read-out: Ki for MATE2‐K‐mediated creatinine uptake; cited from earlier work.
Series [4] deals with T2, SLC29A1/equilibrative nucleoside transporter 1 (Homo sapiens, UniProt Q99808).
T2 sequence (Q99808 2-456): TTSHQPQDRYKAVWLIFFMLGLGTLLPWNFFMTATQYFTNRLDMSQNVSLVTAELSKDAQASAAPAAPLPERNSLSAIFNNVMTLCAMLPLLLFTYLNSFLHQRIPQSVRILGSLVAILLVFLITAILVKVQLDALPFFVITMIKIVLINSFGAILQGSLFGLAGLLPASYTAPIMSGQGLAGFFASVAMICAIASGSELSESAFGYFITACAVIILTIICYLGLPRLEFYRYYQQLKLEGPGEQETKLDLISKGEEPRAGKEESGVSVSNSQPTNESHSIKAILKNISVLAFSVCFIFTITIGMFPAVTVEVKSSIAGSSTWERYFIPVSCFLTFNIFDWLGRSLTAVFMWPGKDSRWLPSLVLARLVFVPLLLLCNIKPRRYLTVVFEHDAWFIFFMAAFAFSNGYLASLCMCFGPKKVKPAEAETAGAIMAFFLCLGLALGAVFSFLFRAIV
In words: Uptake of m1A in HEK293 cells with and without inhibitors. In kind it is cell-based. The settings on record: m1A 100 μM, HEK293, 15 min, inhibitor 10 μM.

The target in a further series is T3, OAT3 (Homo sapiens, UniProt Q8TCC7).
T3 sequence (Q8TCC7 1-542): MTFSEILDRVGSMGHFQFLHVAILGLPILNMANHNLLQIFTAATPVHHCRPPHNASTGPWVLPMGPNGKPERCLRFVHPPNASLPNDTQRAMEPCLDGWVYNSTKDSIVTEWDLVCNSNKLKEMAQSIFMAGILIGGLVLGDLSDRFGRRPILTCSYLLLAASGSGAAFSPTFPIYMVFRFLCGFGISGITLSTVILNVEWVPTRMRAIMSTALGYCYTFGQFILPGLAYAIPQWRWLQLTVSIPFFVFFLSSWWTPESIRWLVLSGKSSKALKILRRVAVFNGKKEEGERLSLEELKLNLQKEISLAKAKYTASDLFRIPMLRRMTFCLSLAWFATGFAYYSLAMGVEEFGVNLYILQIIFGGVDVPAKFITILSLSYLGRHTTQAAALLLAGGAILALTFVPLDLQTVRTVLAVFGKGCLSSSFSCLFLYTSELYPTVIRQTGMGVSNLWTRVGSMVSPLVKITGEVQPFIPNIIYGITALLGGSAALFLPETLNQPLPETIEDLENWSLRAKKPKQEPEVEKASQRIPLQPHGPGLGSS
The series is described as follows: Inhibition of ES uptake in OAT3-expressing HEK293 cells. In kind it is cell-based.

The format of series [5] is in vivo, human. The conditions noted are these: for mean plasma concentration (Cav): mean ± SEM; for impact of metformin administration on CLr: control vs baseline; for AUC / CLr: adjusted geometric mean; for AUC: AUC0–24; for CLr: 0–24 h.
Series [6] has as its target T4, MATE1 (Homo sapiens, UniProt Q96FL8).
T4 sequence (Q96FL8 1-570): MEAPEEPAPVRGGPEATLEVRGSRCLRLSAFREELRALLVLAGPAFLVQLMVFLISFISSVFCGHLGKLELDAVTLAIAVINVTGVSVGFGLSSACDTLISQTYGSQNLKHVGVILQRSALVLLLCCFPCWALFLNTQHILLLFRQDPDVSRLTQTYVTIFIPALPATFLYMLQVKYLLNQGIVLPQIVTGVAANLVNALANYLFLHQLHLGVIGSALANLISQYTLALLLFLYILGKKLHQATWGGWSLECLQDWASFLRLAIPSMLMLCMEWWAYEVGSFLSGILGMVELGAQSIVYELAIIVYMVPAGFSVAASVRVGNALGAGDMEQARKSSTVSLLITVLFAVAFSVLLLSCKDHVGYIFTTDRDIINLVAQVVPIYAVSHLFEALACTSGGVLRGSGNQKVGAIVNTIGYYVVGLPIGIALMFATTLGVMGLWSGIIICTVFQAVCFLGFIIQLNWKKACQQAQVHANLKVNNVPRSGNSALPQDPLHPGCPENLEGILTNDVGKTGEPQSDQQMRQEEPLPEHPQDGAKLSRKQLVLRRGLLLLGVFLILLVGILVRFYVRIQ
In kind it is cell-based. The settings on record: In vitro Ki of pyrimethamine, 2 min, HEK293.

In the next series the target is T5, OCT2 (Homo sapiens, UniProt O15244).
T5 sequence (O15244 1-555): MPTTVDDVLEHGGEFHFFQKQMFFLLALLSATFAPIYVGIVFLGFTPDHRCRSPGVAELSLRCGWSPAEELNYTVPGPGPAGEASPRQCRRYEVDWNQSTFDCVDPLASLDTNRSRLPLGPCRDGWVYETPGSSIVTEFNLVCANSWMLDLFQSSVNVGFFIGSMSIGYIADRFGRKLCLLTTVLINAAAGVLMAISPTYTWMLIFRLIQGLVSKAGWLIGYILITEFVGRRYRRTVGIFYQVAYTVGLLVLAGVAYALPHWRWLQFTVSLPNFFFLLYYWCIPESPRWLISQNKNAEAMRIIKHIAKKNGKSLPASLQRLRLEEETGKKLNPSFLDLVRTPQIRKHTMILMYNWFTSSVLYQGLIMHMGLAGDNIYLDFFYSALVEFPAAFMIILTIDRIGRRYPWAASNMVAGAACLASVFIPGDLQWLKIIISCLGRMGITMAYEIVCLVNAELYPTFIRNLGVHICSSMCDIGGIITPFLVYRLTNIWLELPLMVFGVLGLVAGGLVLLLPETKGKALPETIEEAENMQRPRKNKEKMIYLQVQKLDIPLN
In kind it is cell-based. The settings on record: In vitro Ki of pyrimethamine, HEK293.

For series [7] the following is noted: in humans; cited from earlier work.
For a further series, the system named is MATE1/2‐K. In words: Nonlinear regression of CLr ratio vs pyrimethamine plasma concentration. In kind it is in vivo, human. The settings on record: regression against pyrimethamine Cav.
Where [8] appears, read: pyrimethamine 75 mg + metformin.
The mark [9] stands for this setting: control phase (metformin 500 mg alone).
The mark [10] stands for this setting: pyrimethamine 10 mg + metformin.
[11] abbreviates: pyrimethamine 25 mg + metformin.

Sequence of MATE2‐K (Homo sapiens, UniProt Q86VL8) (Q86VL8 1-566 isoform Q86VL8-3): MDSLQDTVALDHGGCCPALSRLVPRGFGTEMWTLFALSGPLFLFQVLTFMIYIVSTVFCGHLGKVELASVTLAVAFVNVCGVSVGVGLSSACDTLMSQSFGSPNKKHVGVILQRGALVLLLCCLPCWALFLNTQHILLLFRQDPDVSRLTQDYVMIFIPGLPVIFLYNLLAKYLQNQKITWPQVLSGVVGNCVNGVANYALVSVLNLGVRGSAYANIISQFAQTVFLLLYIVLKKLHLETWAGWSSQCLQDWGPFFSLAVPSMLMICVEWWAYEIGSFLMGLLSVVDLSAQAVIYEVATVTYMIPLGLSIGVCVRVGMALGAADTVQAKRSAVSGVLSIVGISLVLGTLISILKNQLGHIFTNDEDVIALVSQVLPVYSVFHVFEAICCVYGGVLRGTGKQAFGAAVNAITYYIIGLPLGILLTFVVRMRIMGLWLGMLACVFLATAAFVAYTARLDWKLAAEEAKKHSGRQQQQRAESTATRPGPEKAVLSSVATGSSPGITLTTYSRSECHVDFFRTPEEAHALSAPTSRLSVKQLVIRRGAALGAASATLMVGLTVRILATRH

For `CCc1nc(N)nc(N)c1-c1ccc(Cl)cc1` [pyrimethamine], the figures for the IC50 against OAT1, with OAT2 and on OAT3 were 241000 ± 55000 nM, more than 100000 nM and 9690 ± 2270 nM, respectively. In addition, the inhibitory constant (Ki) is 170 nM in the series with MATE1 [1]; 82.1 ± 18 nM on MATE2‐K [2] (substrate 1‐NMN 10 μM, 2 min); 68 ± 15 nM at MATE2‐K [2] (substrate m1A 100 μM, 30 min); 94.1 ± 16 nM on MATE2‐K [2] (substrate metformin 10 μM, 2 min); 220 nM in the series with MATE2‐K [3]; 125 ± 26 nM at MATE1 [6] (MATE1, substrate 1‐NMN 10 μM). The Ki came to 154 ± 29 nM at MATE1 [6] (MATE1, substrate metformin 10 μM); 41200 ± 9100 nM at OCT2 (OCT2, substrate 1‐NMN 10 μM, 2 min); 466 ± 43 nM at OCT2 (OCT2, substrate m1A 100 μM, 30 min); 37900 ± 5600 nM at OCT2 (OCT2, substrate metformin 10 μM, 2 min). Moreover, the “effect of inhibitor on uptake of m1A (ENT1)” value in series [4] is on record as “minimal”. The “mean plasma concentration (Cav)” value was 287 ± 24 nM in series [5] (10 mg single oral dose), 781 ± 31 nM in [5] (25 mg single oral dose) and 2470 ± 180 nM in series [5] (75 mg single oral dose). Besides, the “elimination half‐life” value in [7] is “ca. 100 hours”.

Take `CN1CC(=O)NC1=N` [Creatinine, creatinine]: the “impact of metformin administration on CLr” value in series [5] is less than 7%. Also, the “f PYR (contribution of tubular secretion to urinary excretion)” value in the series with MATE1/2‐K is reported as 26%.

`CN(C)C(=N)N=C(N)N` [Metformin, metformin]: the “decrease in CLr by pyrimethamine” value stood at 12% in series [5] (pyrimethamine 10 mg vs control), 34% in series [5] (pyrimethamine 25 mg vs control) and 55% in series [5] (pyrimethamine 75 mg vs control). In addition, the results for the “increase in AUC by pyrimethamine” value in series [5] (pyrimethamine 25 mg vs control) and in series [5] (pyrimethamine 75 mg vs control) were 24% and 69%, respectively. The area under the curve (AUC) in series [5] (setting [8]) was determined as 122.9 µM·h.

With `Cc1ncc(CO)c(C(=O)O)c1O` [PDA, pyridoxic acid], the CLr was 545.1 mL/min in series [5] (setting [9]), 584.6 mL/min in series [5] (setting [10]), 603.1 mL/min in [5] (setting [11]) and 423.7 mL/min in series [5] (setting [8]). In addition, the AUC in [5] (setting [9]) was 0.2912 µM·h; in [5] (setting [10]), 0.2142 µM·h; in series [5] (setting [11]), 0.1772 µM·h; in series [5] (setting [8]), 0.1647 µM·h. In series [5] (pyrimethamine 75 mg vs control), the “decrease in CLr by pyrimethamine” value is listed as 22%.

Regarding `Cn1cnc2c(ncn2[C@@H]2O[C@H](CO)[C@@H](O)[C@H]2O)c1=N` [m^1A, N ^1‐methyladenosine], in [5] (assumed from CLr vs creatinine clearance at 75 mg), the “contribution of the tubular secretion” value is on record as 41%. Further, the “CLr relative to creatinine clearance” value in series [5] (control conditions, vs corresponding creatinine clearance) is 1.3 fold. In addition, the “impact of metformin administration on CLr” value in series [5] is less than 7%.
